What was measured:
[1] = Biodistribution in heart of BALB/c mouse at 20 mg/kg, ip measured after 4 hrs by UHPLC-MS/MS analysis; format: ADME, organism-based; conditions: in vivo
[2] = Toxicity in AOM/DSS-induced orthotopic CRC BALB/c mouse model assessed as body weight loss at 20 mg/kg, ip administered every other day for 2 weeks; format: organism-based; conditions: in vivo, 336 h
[3] = Prodrug conversion in heart of BALB/c mouse assessed as SN38 release at 20 mg/kg, ip measured after 4 hrs by UHPLC-MS/MS analysis; format: ADME, organism-based; conditions: in vivo
[4] = Drug concentration in tumor of BALB/c mouse at 40 mg/kg, iv measured after 4 hrs by UHPLC-MS/MS analysis; format: ADME, organism-based, Neoplasm; conditions: in vivo
[5] = Drug concentration in heart of BALB/c mouse at 40 mg/kg, iv measured after 4 hrs by UHPLC-MS/MS analysis; format: ADME, organism-based; conditions: in vivo
[6] = Prodrug conversion in liver of BALB/c mouse assessed as SN38 release at 40 mg/kg, iv measured after 4 hrs by UHPLC-MS/MS analysis; format: ADME, organism-based; conditions: in vivo
COLO 205 = test: Cytotoxicity against human COLO 205 cells incubated for 48 hrs by SRB assay; format: functional, cell-based; conditions: COLO 205, 48 h
[7] = Drug concentration in kidney of BALB/c mouse at 40 mg/kg, iv measured after 4 hrs by UHPLC-MS/MS analysis; format: ADME, organism-based; conditions: in vivo
[8] = Drug concentration in liver of BALB/c mouse at 40 mg/kg, iv measured after 4 hrs by UHPLC-MS/MS analysis; format: ADME, organism-based; conditions: in vivo
[9] = Biodistribution in brain of BALB/c mouse at 20 mg/kg, ip measured after 4 hrs by UHPLC-MS/MS analysis; format: ADME, organism-based; conditions: in vivo
[10] = Prodrug conversion in tumor of BALB/c mouse assessed as SN38 release at 20 mg/kg, ip measured after 4 hrs by UHPLC-MS/MS analysis; format: ADME, organism-based, Neoplasm; conditions: in vivo
[11] = Drug concentration in stomach of BALB/c mouse at 40 mg/kg, iv measured after 4 hrs by UHPLC-MS/MS analysis; format: ADME, organism-based; conditions: in vivo
[12] = Prodrug conversion in lung of BALB/c mouse assessed as SN38 release at 20 mg/kg, ip measured after 4 hrs by UHPLC-MS/MS analysis; format: ADME, organism-based; conditions: in vivo
[13] = Biodistribution in colorectal tumor site of BALB/c mouse at 20 mg/kg, ip measured after 4 hrs by UHPLC-MS/MS analysis; format: ADME, organism-based, Neoplasm; conditions: in vivo
[14] = Drug concentration in spleen of BALB/c mouse at 40 mg/kg, iv measured after 4 hrs by UHPLC-MS/MS analysis; format: ADME, organism-based; conditions: in vivo
[15] = Prodrug conversion in stomach of BALB/c mouse assessed as SN38 release at 20 mg/kg, ip measured after 4 hrs by UHPLC-MS/MS analysis; format: ADME, organism-based; conditions: in vivo
[16] = Prodrug conversion in brain of BALB/c mouse assessed as SN38 release at 20 mg/kg, ip measured after 4 hrs by UHPLC-MS/MS analysis; format: ADME, organism-based; conditions: in vivo
[17] = Prodrug conversion in kidney of BALB/c mouse assessed as SN38 release at 20 mg/kg, ip measured after 4 hrs by UHPLC-MS/MS analysis; format: ADME, organism-based; conditions: in vivo
[18] = Biodistribution in liver of BALB/c mouse at 20 mg/kg, ip measured after 4 hrs by UHPLC-MS/MS analysis; format: ADME, organism-based; conditions: in vivo
[19] = Drug concentration in brain of BALB/c mouse at 40 mg/kg, iv measured after 4 hrs by UHPLC-MS/MS analysis; format: ADME, organism-based; conditions: in vivo
[20] = Prodrug conversion in tumor of BALB/c mouse assessed as SN38 release at 40 mg/kg, iv measured after 4 hrs by UHPLC-MS/MS analysis; format: ADME, organism-based, Neoplasm; conditions: in vivo
[21] = Drug concentration in intestine of BALB/c mouse at 40 mg/kg, iv measured after 4 hrs by UHPLC-MS/MS analysis; format: ADME, organism-based; conditions: in vivo
[22] = Biodistribution in gastrointestinal tract of BALB/c mouse at 20 mg/kg, ip measured after 4 hrs by UHPLC-MS/MS analysis; format: ADME, organism-based; conditions: in vivo
[23] = Biodistribution in spleen of BALB/c mouse at 20 mg/kg, ip measured after 4 hrs by UHPLC-MS/MS analysis; format: ADME, organism-based; conditions: in vivo
[24] = Prodrug conversion in liver of BALB/c mouse assessed as SN38 release at 20 mg/kg, ip measured after 4 hrs by UHPLC-MS/MS analysis; format: ADME, organism-based; conditions: in vivo
[25] = Prodrug conversion in spleen of BALB/c mouse assessed as SN38 release at 20 mg/kg, ip measured after 4 hrs by UHPLC-MS/MS analysis; format: ADME, organism-based; conditions: in vivo
HCT-116 = test: Cytotoxicity against human HCT-116 cells incubated for 48 hrs by SRB assay; format: functional, cell-based; conditions: HCT-116, 48 h
HT-29 = test: Cytotoxicity against human HT-29 cells incubated for 48 hrs by SRB assay; format: functional, cell-based; conditions: HT-29, 48 h
[26] = Prodrug conversion in intestine of BALB/c mouse assessed as SN38 release at 20 mg/kg, ip measured after 4 hrs by UHPLC-MS/MS analysis; format: ADME, organism-based; conditions: in vivo
[27] = Toxicity in AOM/DSS-induced orthotopic CRC BALB/c mouse model assessed as body weight loss at 40 mg/kg, iv administered once every 2 days for 2 weeks; format: organism-based; conditions: in vivo, 336 h

Drug uptake [1]: Active
Drug metabolism [3]: Metabolite_Detected
Ct [4]: Active
Ct [5]: Active
Drug metabolism [6]: Metabolite_Detected
Ct [7]: Active
Ct [8]: Active
Drug uptake [9]: Active
Drug metabolism [10]: Metabolite_Detected
Ct [11]: Active
Drug metabolism [12]: Metabolite_Detected
Drug uptake [13]: Active
Ct [14]: Active
Drug metabolism [15]: Metabolite_Detected
Drug metabolism [16]: Metabolite_Detected
Drug metabolism [17]: Metabolite_Detected
Drug uptake [18]: Active
Ct [19]: Active
Drug metabolism [20]: Metabolite_Detected
Ct [21]: Active
Drug uptake [22]: Active
Drug uptake [23]: Active
Drug metabolism [24]: Metabolite_Detected
Drug metabolism [25]: Metabolite_Detected
Drug metabolism [26]: Metabolite_Detected
Structure (SMILES): CCc1c2c(nc3ccc(OC(=O)N4CCC(N5CCCCC5)CC4)cc13)-c1cc3c(c(=O)n1C2)COC(=O)[C@]3(O)CC [IRINOTECAN]
Activity [2]: Non-Toxic
IC50 (COLO 205): 9.9 µM
IC50 (HCT-116): 3.69 µM
IC50 (HT-29): 8.51 µM
Activity [27]: Non-Toxic
